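The compound was tested at five concentrations on cells cultured in 96-well plates, with a 48-hour exposure period. Abbreviation: GI50, concentration required for 50% inhibition of growth.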 Active and inactive are the calls of the source. Cut-off read from the data, not from the text of the source: active = GI50 up to about 1.1 µM and inactive = higher.
Assays:
Test in all cases: inhibition of tumour cell growth, NCI panel, 48 h
NCI-H522 = test system: NCI-H522
DU-145 = test system: DU-145
M14 = test system: M14
OVCAR-5 = test system: OVCAR-5
BT-549 = test system: BT-549
CAKI-1 = test system: CAKI-1
MDA-MB-231 = test system: MDA-MB-231
NCI-H226 = test system: NCI-H226
UACC-257 = test system: UACC-257
HCT-116 = test system: HCT-116
UO-31 = test system: UO-31
NCI-H460 = test system: NCI-H460
MDA-MB-435 = test system: MDA-MB-435
SNB-19 = test system: SNB-19
IGROV-1 = test system: IGROV-1
SW-620 = test system: SW-620
KM12 = test system: KM12
OVCAR-4 = test system: OVCAR-4
SN12C = test system: SN12C
RXF 393 = test system: RXF 393
K562 = test system: K562
NCI/ADR-RES = test system: NCI/ADR-RES
CCRF-CEM = test system: CCRF-CEM
SK-MEL-2 = test system: SK-MEL-2
HL-60 = test system: HL-60
NCI-H23 = test system: NCI-H23
OVCAR-3 = test system: OVCAR-3
U-251 = test system: U-251
PC-3 = test system: PC-3
A549 = test system: A549
MCF7 = test system: MCF7
HCC 2998 = test system: HCC 2998
RPMI-8226 = test system: RPMI-8226
COLO 205 = test system: COLO 205
SF-539 = test system: SF-539
SK-OV-3 = test system: SK-OV-3
UACC-62 = test system: UACC-62
MDA-N = test system: MDA-N
HOP-92 = test system: HOP-92
LOX IMVI = test system: LOX IMVI
HCT-15 = test system: HCT-15
MOLT-4 = test system: MOLT-4
ACHN = test system: ACHN
A498 = test system: A498
SR = test system: SR
SF-268 = test system: SF-268
HT-29 = test system: HT-29
Malme-3M = test system: Malme-3M
HOP-62 = test system: HOP-62
SK-MEL-5 = test system: SK-MEL-5
EKVX = test system: EKVX
SK-MEL-28 = test system: SK-MEL-28
TK-10 = test system: TK-10
SNB-75 = test system: SNB-75
T47D = test system: T47D
OVCAR-8 = test system: OVCAR-8
SF-295 = test system: SF-295
Hs-578T = test system: Hs-578T
786-0 = test system: 786-0

O=c1ccn(C2OC(CO)C(O)C2O)c(=O)[nH]1 (stereo not given)
GI50 (NCI-H522): > 1000 µM (inactive) | GI50 (DU-145): > 1000 µM (inactive) | GI50 (M14): > 1000 µM (inactive) | GI50 (OVCAR-5): > 1000 µM (inactive) | GI50 (BT-549): > 1000 µM (inactive) | GI50 (CAKI-1): > 1000 µM (inactive) | GI50 (MDA-MB-231): > 1000 µM (inactive) | GI50 (NCI-H226): > 1000 µM (inactive) | GI50 (UACC-257): > 1000 µM (inactive)

N#Cc1c(N)sc2c1-c1ccccc1OC2
GI50 (HCT-116): 27.3 µM (inactive) | GI50 (UO-31): 25.2 µM (inactive) | GI50 (NCI-H460): 36.4 µM (inactive) | GI50 (MDA-MB-435): 32.5 µM (inactive) | GI50 (SNB-19): 30.5 µM (inactive) | GI50 (IGROV-1): 49.7 µM (inactive) | GI50 (SW-620): 35.5 µM (inactive) | GI50 (KM12): 38.2 µM (inactive) | GI50 (OVCAR-4): 26.5 µM (inactive) | GI50 (SN12C): 19.7 µM (inactive) | GI50 (RXF 393): 16 µM (inactive) | GI50 (K562): 34.2 µM (inactive) | GI50 (NCI/ADR-RES): 32.2 µM (inactive) | GI50 (CCRF-CEM): 12.4 µM (inactive) | GI50 (SK-MEL-2): 38.5 µM (inactive) | GI50 (HL-60): 16.4 µM (inactive) | GI50 (NCI-H23): 45.4 µM (inactive) | GI50 (OVCAR-3): 22.3 µM (inactive) | GI50 (U-251): 45.1 µM (inactive) | GI50 (PC-3): 32.4 µM (inactive) | GI50 (A549): 32.4 µM (inactive) | GI50 (MCF7): 40 µM (inactive) | GI50 (HCC 2998): 26 µM (inactive) | GI50 (DU-145): 50.1 µM (inactive) | GI50 (RPMI-8226): 33.6 µM (inactive) | GI50 (COLO 205): 42.8 µM (inactive) | GI50 (SF-539): 46.6 µM (inactive) | GI50 (SK-OV-3): 38.2 µM (inactive) | GI50 (UACC-62): 53.7 µM (inactive) | GI50 (MDA-N): 21.1 µM (inactive) | GI50 (HOP-92): 44 µM (inactive) | GI50 (LOX IMVI): 38.1 µM (inactive) | GI50 (HCT-15): 26.7 µM | GI50 (MOLT-4): 17.5 µM (inactive) | GI50 (ACHN): 32.2 µM (inactive) | GI50 (A498): 29.3 µM (inactive) | GI50 (SR): 19.1 µM (inactive) | GI50 (SF-268): 37.1 µM (inactive) | GI50 (HT-29): 26.2 µM (inactive) | GI50 (Malme-3M): 41.2 µM (inactive) | GI50 (M14): 56.5 µM (inactive) | GI50 (OVCAR-5): 31.6 µM (inactive) | GI50 (HOP-62): 46.3 µM (inactive) | GI50 (SK-MEL-5): 45.3 µM (inactive) | GI50 (BT-549): 41 µM (inactive) | GI50 (EKVX): 3.52 µM (inactive) | GI50 (MDA-MB-231): 46.9 µM (inactive) | GI50 (SK-MEL-28): 44.2 µM (inactive) | GI50 (NCI-H226): 93.5 µM (inactive) | GI50 (UACC-257): > 100 µM (inactive) | GI50 (TK-10): 32.1 µM (inactive)

C=C1C(=O)O[C@H]2C1C[C@H](O)[C@@]1(C)OC1CC[C@@]1(C)O[C@H]21 (stereo not given in full)
GI50 (HCT-116): 16.6 µM (inactive) | GI50 (UO-31): 17.1 µM (inactive) | GI50 (NCI-H460): > 100 µM (inactive) | GI50 (MDA-MB-435): 23.5 µM (inactive) | GI50 (IGROV-1): 14.9 µM (inactive) | GI50 (SNB-75): 80.4 µM (inactive) | GI50 (SW-620): 13.6 µM (inactive) | GI50 (KM12): 25.1 µM (inactive) | GI50 (T47D): 19.3 µM (inactive) | GI50 (OVCAR-4): 13.6 µM (inactive) | GI50 (SN12C): 17.4 µM (inactive) | GI50 (RXF 393): 22.5 µM (inactive) | GI50 (K562): 4.28 µM (inactive) | GI50 (NCI/ADR-RES): 20.9 µM (inactive) | GI50 (CCRF-CEM): 2.61 µM (inactive) | GI50 (SK-MEL-2): 26.5 µM (inactive) | GI50 (NCI-H23): 19.5 µM (inactive) | GI50 (NCI-H522): 2.79 µM (inactive) | GI50 (U-251): > 100 µM (inactive) | GI50 (PC-3): 17.8 µM (inactive) | GI50 (A549): > 100 µM (inactive) | GI50 (MCF7): 15.4 µM (inactive) | GI50 (HCC 2998): 14.7 µM (inactive) | GI50 (DU-145): 34.5 µM (inactive) | GI50 (RPMI-8226): 6.65 µM (inactive) | GI50 (COLO 205): 4.88 µM (inactive) | GI50 (SK-OV-3): 61.8 µM (inactive) | GI50 (UACC-62): 14.6 µM (inactive) | GI50 (HOP-92): 20.6 µM (inactive) | GI50 (HCT-15): 18.7 µM | GI50 (MOLT-4): 10.1 µM (inactive) | GI50 (ACHN): 18.1 µM (inactive) | GI50 (SR): 17.8 µM (inactive) | GI50 (OVCAR-8): 19 µM (inactive) | GI50 (SF-268): 43.2 µM (inactive) | GI50 (HT-29): 32.5 µM (inactive) | GI50 (SF-295): > 100 µM (inactive) | GI50 (Malme-3M): 12 µM (inactive) | GI50 (M14): 15.5 µM (inactive) | GI50 (OVCAR-5): 16.9 µM (inactive) | GI50 (HOP-62): 27.6 µM (inactive) | GI50 (SK-MEL-5): 20.4 µM (inactive) | GI50 (BT-549): 13.8 µM (inactive) | GI50 (CAKI-1): 17.7 µM (inactive) | GI50 (EKVX): 18.2 µM (inactive) | GI50 (SK-MEL-28): 19.4 µM (inactive) | GI50 (Hs-578T): 37.3 µM (inactive) | GI50 (786-0): 21 µM (inactive) | GI50 (UACC-257): 18.1 µM (inactive) | GI50 (TK-10): 19.8 µM (inactive)
